Test results published in article PMC6315173, “Characterization of the Apelin/Elabela Receptors (APLNR) in Chickens, Turtles, and Zebrafish: Identification of a Novel Apelin-Specific Receptor in Teleosts” (Frontiers in Endocrinology, 2018).
Residues, ends and D or L forms follow the SMILES beside them. No end group written: not given here.

How the values were obtained:
[1] = molecular target: T1, zebrafish APLNR2a (zfAPLNR2a) (Danio rerio, UniProt Q7SZP9); assay: pGL3-CRE-luciferase reporter assay, HEK293 cells expressing zebrafish APLNR2a; format: cell-based; conditions: SEM
T1 construct: the open reading frame (ORF) of each APLNR was amplified from the animal; expressed in transfected cells; host or cells: HEK293
T1 sequence (Q7SZP9 1-362): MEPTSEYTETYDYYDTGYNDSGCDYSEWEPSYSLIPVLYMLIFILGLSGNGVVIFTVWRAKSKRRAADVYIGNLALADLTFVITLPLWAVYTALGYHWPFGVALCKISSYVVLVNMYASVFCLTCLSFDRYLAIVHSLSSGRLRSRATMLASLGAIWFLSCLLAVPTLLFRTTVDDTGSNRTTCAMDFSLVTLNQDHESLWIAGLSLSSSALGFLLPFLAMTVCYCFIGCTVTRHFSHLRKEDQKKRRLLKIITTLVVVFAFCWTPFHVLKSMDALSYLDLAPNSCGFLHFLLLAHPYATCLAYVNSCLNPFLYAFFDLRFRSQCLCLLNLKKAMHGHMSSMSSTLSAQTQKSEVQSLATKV
Protocol: (§1) In brief, HEK293 cells were cultured on a six-well plate and grown for 24 h before transfection. The cells were then transfected with a mixture containing 700 ng pGL3-CRE-Luciferase reporter construct (or pGL4-SRE-Luciferase reporter construct), 200 ng of receptor expression plasmid [or empty pcDNA3.1(+) vector as a negative control], and 2 μl jetPRIME (Polyplus Transfection, Illkirch, France) in 200 μl buffer. Twenty-four hour later, HEK293 cells were sub-cultured into a 96-well plate at 37°C for an additional 24 h before treatment. After removal of medium from the 96-well plate, the cells were treated with 100 μl peptide-containing medium (or peptide-free medium) for 6 h in the presence or absence of forskolin (5 μM). Finally, HEK293 cells were lysed with 1 × passive lysis buffer for luciferase assay (Promega, Madison, WI, USA) and the luciferase activity of the cell lysate was measured by a Multimode microplate Reader (TriStar LB 941, EG&G Berthold, Germany) according to the manufacturer's instruction.
(§2) The luciferase activity in each treatment group was expressed as the relative fold changes as compared with their respective control groups. The data were analyzed by non-linear regression followed by one-way ANOVA using GraphPad Prism 5 (GraphPad, San Diego, CA, USA). To validate the results, all experiments were repeated at least twice.

[2] = molecular target: T2, zebrafish APLNR2b (zfAPLNR2b) (Danio rerio, UniProt A0T2N3); assay: pGL3-CRE-luciferase reporter assay, HEK293 cells expressing zebrafish APLNR2b; format: cell-based; conditions: SEM
T2 construct: the open reading frame (ORF) of each APLNR was amplified from the animal; expressed in transfected cells; host or cells: HEK293
T2 sequence (A0T2N3 1-359): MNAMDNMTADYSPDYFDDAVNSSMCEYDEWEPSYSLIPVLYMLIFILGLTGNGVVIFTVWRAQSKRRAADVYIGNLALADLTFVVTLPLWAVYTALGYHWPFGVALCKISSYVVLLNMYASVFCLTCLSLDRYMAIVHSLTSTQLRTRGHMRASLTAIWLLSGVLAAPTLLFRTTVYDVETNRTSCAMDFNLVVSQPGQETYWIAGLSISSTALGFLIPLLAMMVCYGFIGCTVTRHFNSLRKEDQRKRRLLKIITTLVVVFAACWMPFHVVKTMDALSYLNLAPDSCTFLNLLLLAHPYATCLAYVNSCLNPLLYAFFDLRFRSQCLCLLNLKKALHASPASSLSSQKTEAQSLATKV
Protocol: as §1, §2

[3] = test system: tilapia APLNR3b (tiAPLNR3b); assay: pGL3-CRE-luciferase reporter assay, HEK293 cells expressing tilapia APLNR3b; format: cell-based, Nile tilapia (Oreochromis niloticus); conditions: HEK293 cells transiently expressing tiAPLNR3b, inhibition of forskolin (5 μM)-stimulated pGL3-CRE-luciferase activity, 6 h, mean ± S.E. of 3 independent experiments, N = EC50 cannot be evaluated
Protocol: as §1, §2

[4] = test system: zebrafish APLNR3a (zfAPLNR3a); assay: pGL3-CRE-luciferase reporter assay, HEK293 cells expressing zebrafish APLNR3a; format: cell-based, zebrafish (Danio rerio); conditions: HEK293 cells transiently expressing zfAPLNR3a, inhibition of forskolin (5 μM)-stimulated pGL3-CRE-luciferase activity, 6 h, mean ± S.E. of 3 independent experiments, N = EC50 cannot be evaluated
Protocol: as §1, §2

[5] = molecular target: T3, zebrafish APLNR2a (Danio rerio, UniProt Q7SZP9); assay: Western blot of ERK1/2 phosphorylation, HEK293 cells expressing zebrafish APLNR2a; format: cell-based; conditions: 100 nM, duplicates, time-dependent (5, 10, 20 min)
T3 construct: the open reading frame (ORF) of each APLNR was amplified from the animal; expressed in transfected cells; host or cells: HEK293
T3 sequence (Q7SZP9 1-362): T1 sequence (Q7SZP9 1-362)
Protocol: HEK293 cells cultured in a 60-mm culture dish (Nunc, Rochester, NY, USA) with 70% confluence were transfected by 1 μg of receptor expression plasmid using jetPRIME reagent according to manufacturers' instruction (Polyplus Transfection, Illkirch, France). […] These cells were washed with cold PBS and lysed by RIPA Lysis Buffer (Roche, Basel, Switzerland) on ice. Western blot was used to examine ERK1/2 phosphorylation and β-actin levels in cell lysates.

[6] = test system: zebrafish APLNR3a; assay: Western blot of ERK1/2 phosphorylation, HEK293 cells expressing zebrafish APLNR3a; format: cell-based, zebrafish (Danio rerio)
Protocol: HEK293 cells cultured in a 60-mm culture dish (Nunc, Rochester, NY, USA) with 70% confluence were transfected by 1 μg of receptor expression plasmid using jetPRIME reagent according to manufacturers' instruction (Polyplus Transfection, Illkirch, France). After the 24-h transfection, HEK293 cells were sub-cultured into a 24-well plate, serum-deprived for 12 h and then treated by peptides for 10 min. These cells were washed with cold PBS and lysed by RIPA Lysis Buffer (Roche, Basel, Switzerland) on ice. Western blot was used to examine ERK1/2 phosphorylation and β-actin levels in cell lysates.

| Compound | EC50 [1] | EC50 [2] | EC50 [3] | EC50 [4] | phosphorylation of ERK1/2, Western blot [5] | ERK1/2 phosphorylation, Western blot [6] | EC50 ([3]; SEM) | EC50 ([4]; SEM) |
| --- | --- | --- | --- | --- | --- | --- | --- | --- |
| CC(C)C[C@H](NC(=O)[C@@H]1CCCN1C(=O)[C@H](CC(C)C)NC(=O)[C@H](CS)NC(=O)[C@H](CCCNC(=N)N)NC(=O)[C@H](CCCCN)NC(=O)[C@H](CCCCN)NC(=O)[C@@H]1CCCN1C(=O)[C@H](CS)NC(=O)[C@H](CC(N)=O)NC(=O)[C@H](Cc1c[nH]cn1)NC(=O)[C@H](CCCNC(=N)N)NC(=O)[C@H](CCCNC(=N)N)NC(=O)[C@H](Cc1ccc(O)cc1)NC(=O)[C@@H](N)CCCCN)C(=O)N[C@@H](Cc1c[nH]cn1)C(=O)N[C@@H](CO)C(=O)N[C@@H](CCCNC(=N)N)C(=O)N[C@H](C(=O)N1CCC[C@H]1C(=O)N[C@@H](Cc1ccccc1)C(=O)N1CCC[C@H]1C(=O)O)C(C)C [zfELA-22] (H-KYRRHNCPKKRCLPLHSRVPFP-OH; N-terminus and C-terminus assumed) | 1.43 ± 0.57 nM | 1.78 ± 1.17 nM | > 100 nM | > 100 nM |  |  |  |  |
| CC(C)C[C@H](NC(=O)[C@H](CC(N)=O)NC(=O)[C@H](CC(C)C)NC(=O)[C@H](Cc1ccccc1)NC(=O)[C@H](CC(=O)O)NC(=O)[C@H](Cc1c[nH]cn1)NC(=O)[C@H](CCCCN)NC(=O)[C@@H](NC(=O)CNC(=O)[C@H](Cc1c[nH]cn1)NC(=O)[C@H](CCCCN)NC(=O)[C@@H](N)CC(=O)O)[C@@H](C)O)C(=O)N[C@@H](CCCNC(=N)N)C(=O)N[C@@H](CCCNC(=N)N)C(=O)N[C@@H](CCCCN)C(=O)N[C@@H](Cc1ccc(O)cc1)C(=O)N[C@@H](CCCNC(=N)N)C(=O)N[C@@H](CCCNC(=N)N)C(=O)N[C@@H](Cc1c[nH]cn1)C(=O)N[C@@H](CC(N)=O)C(=O)N[C@@H](CS)C(=O)N1CCC[C@H]1C(=O)N[C@@H](CCCCN)C(=O)N[C@@H](CCCCN)C(=O)N[C@@H](CCCNC(=N)N)C(=O)N[C@@H](CS)C(=O)N[C@@H](CC(C)C)C(=O)N1CCC[C@H]1C(=O)N[C@@H](CC(C)C)C(=O)N[C@@H](Cc1c[nH]cn1)C(=O)N[C@@H](CO)C(=O)N[C@@H](CCCNC(=N)N)C(=O)N[C@H](C(=O)N1CCC[C@H]1C(=O)N[C@@H](Cc1ccccc1)C(=O)N1CCC[C@H]1C(=O)O)C(C)C [zfELA-36] (H-DKHGTKHDFLNLRRKYRRHNCPKKRCLPLHSRVPFP-OH; N-terminus and C-terminus assumed) | 1.61 ± 0.8 nM | 1.29 ± 0.9 nM | > 100 nM | > 100 nM | can enhance phosphorylation of ERK1/2 | not ELA-36 |  |  |
| TPLRQNPARAGRSQRPAGWRRRRPRPRLSHKGPMPF [zfApelin-36] | 0.89 ± 0.44 nM | 0.51 ± 0.31 nM |  |  | can enhance phosphorylation of ERK1/2 | can induce ERK1/2 phosphorylation | 0.77 ± 0.24 nM | 0.45 ± 0.12 nM |
